Measured values: patent US9422297B2, “Tricyclic compounds having cytostatic and/or cytotoxic activity and methods of use thereof” (Duquesne University of the Holy Ghost, priority 2007, dated 2016)

Assays:
EGFR kinase = EGFR kinase (Homo sapiens (Human), UniProt P00533); test: EGFR kinase inhibition; type: biochemical; settings: Table 3; read-out: EGFR kinase
A431 cytotoxicity assay = type: cell-based; settings: human, A431 cells; Table 3
Flk-1 kinase = Flk-1 kinase (Homo sapiens (Human), UniProt P35968); test: Flk-1 kinase inhibition; type: biochemical; settings: Table 3
Chain of Flk-1 kinase (P35968 20-1356): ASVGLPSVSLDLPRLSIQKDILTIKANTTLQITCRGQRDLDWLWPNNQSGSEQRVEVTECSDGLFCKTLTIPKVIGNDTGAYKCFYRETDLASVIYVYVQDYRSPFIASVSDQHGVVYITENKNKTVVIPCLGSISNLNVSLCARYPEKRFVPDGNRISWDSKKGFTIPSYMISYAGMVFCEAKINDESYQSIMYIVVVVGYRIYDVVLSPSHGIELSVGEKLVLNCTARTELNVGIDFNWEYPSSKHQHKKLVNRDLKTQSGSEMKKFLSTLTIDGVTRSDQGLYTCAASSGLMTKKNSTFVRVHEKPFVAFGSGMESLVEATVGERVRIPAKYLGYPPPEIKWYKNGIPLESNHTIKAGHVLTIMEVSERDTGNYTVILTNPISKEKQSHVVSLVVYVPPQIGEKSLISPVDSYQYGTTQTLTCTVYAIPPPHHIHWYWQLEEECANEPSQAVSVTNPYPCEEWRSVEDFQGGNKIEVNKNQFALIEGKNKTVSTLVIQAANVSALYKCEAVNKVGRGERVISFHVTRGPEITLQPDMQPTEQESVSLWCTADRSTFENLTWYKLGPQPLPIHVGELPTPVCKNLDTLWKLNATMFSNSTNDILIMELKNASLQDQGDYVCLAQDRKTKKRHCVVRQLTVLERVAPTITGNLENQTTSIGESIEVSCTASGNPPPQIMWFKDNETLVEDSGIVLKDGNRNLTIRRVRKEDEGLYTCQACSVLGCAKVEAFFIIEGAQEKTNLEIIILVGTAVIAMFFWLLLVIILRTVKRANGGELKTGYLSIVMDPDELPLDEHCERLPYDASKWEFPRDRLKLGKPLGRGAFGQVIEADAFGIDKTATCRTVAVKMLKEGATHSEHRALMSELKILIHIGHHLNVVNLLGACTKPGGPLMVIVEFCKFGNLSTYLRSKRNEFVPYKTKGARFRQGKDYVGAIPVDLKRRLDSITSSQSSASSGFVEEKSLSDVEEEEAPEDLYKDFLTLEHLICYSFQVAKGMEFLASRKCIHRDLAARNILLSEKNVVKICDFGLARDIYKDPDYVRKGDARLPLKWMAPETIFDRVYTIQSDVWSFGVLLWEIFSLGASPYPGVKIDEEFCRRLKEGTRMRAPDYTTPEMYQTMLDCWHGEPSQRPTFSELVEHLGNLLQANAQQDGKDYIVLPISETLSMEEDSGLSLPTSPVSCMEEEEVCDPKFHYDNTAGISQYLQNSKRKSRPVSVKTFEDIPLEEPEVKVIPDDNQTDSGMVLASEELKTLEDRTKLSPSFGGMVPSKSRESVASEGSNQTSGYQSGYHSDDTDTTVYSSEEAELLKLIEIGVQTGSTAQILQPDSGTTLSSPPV

MOLT-4 = test: NCI In-Vitro Testing, Leukemia; type: cell-based
AS45/ATCC = test: NCI In-Vitro Testing, Non-Small Cell Lung Cancer; type: cell-based
NCI-H322M = test: NCI In-Vitro Testing, Non-Small Cell Lung Cancer; type: cell-based
NCI-H522 = test: NCI In-Vitro Testing, Non-Small Cell Lung Cancer; type: cell-based
LOXIMVI = test: NCI In-Vitro Testing, Melanoma; type: cell-based
MALME-3M = test: NCI In-Vitro Testing, Melanoma; type: cell-based
M14 = test: NCI In-Vitro Testing, Melanoma; type: cell-based
SK-MEL-23 = test: NCI In-Vitro Testing, Melanoma; type: cell-based
SK-OV-3 = test: NCI In-Vitro Testing, Ovarian Cancer; type: cell-based
785-0 = test: NCI In-Vitro Testing, Renal Cancer; type: cell-based
A498 = test: NCI In-Vitro Testing, Renal Cancer; type: cell-based
CAKI-1 = test: NCI In-Vitro Testing, Renal Cancer; type: cell-based
RXF 399 = test: NCI In-Vitro Testing, Renal Cancer; type: cell-based
PC-3 = test: NCI In-Vitro Testing, Prostate Cancer; type: cell-based
NCWADR-RES = test: NCI In-Vitro Testing, Breast Cancer; type: cell-based
MDA-MB-435 = test: NCI In-Vitro Testing, Breast Cancer; type: cell-based
T-47D = test: NCI In-Vitro Testing, Breast Cancer; type: cell-based

Chain of EGFR kinase (P00533 25-1210): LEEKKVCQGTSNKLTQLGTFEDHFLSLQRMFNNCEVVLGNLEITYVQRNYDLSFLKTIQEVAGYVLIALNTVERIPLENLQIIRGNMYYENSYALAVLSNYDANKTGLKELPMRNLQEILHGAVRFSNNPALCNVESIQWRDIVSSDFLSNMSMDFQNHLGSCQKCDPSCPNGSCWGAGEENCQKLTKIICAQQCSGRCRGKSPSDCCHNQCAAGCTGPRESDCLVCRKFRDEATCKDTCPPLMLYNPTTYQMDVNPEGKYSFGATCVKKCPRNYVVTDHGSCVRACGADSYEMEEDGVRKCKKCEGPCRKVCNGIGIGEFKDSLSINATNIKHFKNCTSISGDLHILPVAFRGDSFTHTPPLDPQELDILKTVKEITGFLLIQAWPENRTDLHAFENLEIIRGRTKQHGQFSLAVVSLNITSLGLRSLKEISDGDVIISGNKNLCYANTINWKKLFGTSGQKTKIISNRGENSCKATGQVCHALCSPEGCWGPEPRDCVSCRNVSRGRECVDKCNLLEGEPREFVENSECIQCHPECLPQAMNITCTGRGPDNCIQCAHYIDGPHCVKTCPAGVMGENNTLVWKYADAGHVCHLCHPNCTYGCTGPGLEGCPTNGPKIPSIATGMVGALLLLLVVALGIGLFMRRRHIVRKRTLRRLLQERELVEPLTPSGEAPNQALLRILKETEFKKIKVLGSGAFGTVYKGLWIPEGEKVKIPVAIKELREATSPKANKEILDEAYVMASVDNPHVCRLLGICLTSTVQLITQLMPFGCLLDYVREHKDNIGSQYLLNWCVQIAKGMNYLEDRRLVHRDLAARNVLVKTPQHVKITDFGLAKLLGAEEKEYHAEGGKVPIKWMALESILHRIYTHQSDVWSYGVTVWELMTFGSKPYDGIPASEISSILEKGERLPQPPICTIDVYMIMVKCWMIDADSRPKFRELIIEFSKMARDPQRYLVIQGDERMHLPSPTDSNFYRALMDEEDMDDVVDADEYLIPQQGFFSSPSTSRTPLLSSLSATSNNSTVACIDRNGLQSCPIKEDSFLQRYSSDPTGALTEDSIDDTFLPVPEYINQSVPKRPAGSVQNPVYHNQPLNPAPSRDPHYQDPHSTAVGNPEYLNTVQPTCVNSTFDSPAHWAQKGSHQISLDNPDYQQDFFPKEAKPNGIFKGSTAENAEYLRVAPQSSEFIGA

Nc1nc2c(c(Nc3ccc(Cl)cc3)n1)-c1ccccc1C2 [AAG145-136]
IC50 (EGFR kinase): 26 µM | IC50 (A431 cytotoxicity assay): 9.7 µM | IC50 (Flk-1 kinase): > 200 µM | GI50 (MOLT-4): 6.61E−8 Molar | LC50 (MOLT-4): >1.00E−4 Molar | TGI (MOLT-4): >1.00E−4 Molar | Percent Growth (MOLT-4; Log10 Concentration −4.0 Molar): 21% | Percent Growth (MOLT-4; Log10 Concentration −5.0 Molar): 11% | Percent Growth (MOLT-4; Log10 Concentration −6.0 Molar): 14% | Percent Growth (MOLT-4; Log10 Concentration −7.0 Molar): 39% | Percent Growth (MOLT-4; Log10 Concentration −8.0 Molar): 99% | GI50 (AS45/ATCC): 4.34E−8 Molar | LC50 (AS45/ATCC): >1.00E−4 Molar | TGI (AS45/ATCC): >1.00E−4 Molar | Percent Growth (AS45/ATCC; Log10 Concentration −4.0 Molar): 7% | Percent Growth (AS45/ATCC; Log10 Concentration −5.0 Molar): 15% | Percent Growth (AS45/ATCC; Log10 Concentration −6.0 Molar): 21% | Percent Growth (AS45/ATCC; Log10 Concentration −7.0 Molar): 33% | Percent Growth (AS45/ATCC; Log10 Concentration −8.0 Molar): 30% | GI50 (NCI-H322M): 1.35E−6 Molar | LC50 (NCI-H322M): >1.00E−4 Molar | TGI (NCI-H322M): >1.00E−4 Molar | Percent Growth (NCI-H322M; Log10 Concentration −4.0 Molar): 39% | Percent Growth (NCI-H322M; Log10 Concentration −5.0 Molar): 32% | Percent Growth (NCI-H322M; Log10 Concentration −6.0 Molar): 53% | Percent Growth (NCI-H322M; Log10 Concentration −7.0 Molar): 101% | Percent Growth (NCI-H322M; Log10 Concentration −8.0 Molar): 103% | GI50 (NCI-H522): 6.22E−7 Molar | LC50 (NCI-H522): >1.00E−4 Molar | TGI (NCI-H522): 3.88E−5 Molar | Percent Growth (NCI-H522; Log10 Concentration −4.0 Molar): −10% | Percent Growth (NCI-H522; Log10 Concentration −5.0 Molar): 14% | Percent Growth (NCI-H522; Log10 Concentration −6.0 Molar): 40% | Percent Growth (NCI-H522; Log10 Concentration −7.0 Molar): 89% | Percent Growth (NCI-H522; Log10 Concentration −8.0 Molar): 96% | GI50 (LOXIMVI): 3.08E−7 Molar | LC50 (LOXIMVI): >1.00E−4 Molar | TGI (LOXIMVI): >1.00E−4 Molar | Percent Growth (LOXIMVI; Log10 Concentration −4.0 Molar): 15% | Percent Growth (LOXIMVI; Log10 Concentration −5.0 Molar): 11% | Percent Growth (LOXIMVI; Log10 Concentration −6.0 Molar): 16% | Percent Growth (LOXIMVI; Log10 Concentration −7.0 Molar): 52% | Percent Growth (LOXIMVI; Log10 Concentration −8.0 Molar): 106% | GI50 (MALME-3M): >1.00E−4 Molar | LC50 (MALME-3M): >1.00E−4 Molar | TGI (MALME-3M): >1.00E−4 Molar | Percent Growth (MALME-3M; Log10 Concentration −4.0 Molar): 78% | Percent Growth (MALME-3M; Log10 Concentration −5.0 Molar): 64% | Percent Growth (MALME-3M; Log10 Concentration −6.0 Molar): 106% | Percent Growth (MALME-3M; Log10 Concentration −7.0 Molar): 97% | Percent Growth (MALME-3M; Log10 Concentration −8.0 Molar): 96% | GI50 (M14): 4.31E−7 Molar | LC50 (M14): >1.00E−4 Molar | TGI (M14): >1.00E−4 Molar | Percent Growth (M14; Log10 Concentration −4.0 Molar): 34% | Percent Growth (M14; Log10 Concentration −5.0 Molar): 21% | Percent Growth (M14; Log10 Concentration −6.0 Molar): 31% | Percent Growth (M14; Log10 Concentration −7.0 Molar): 84% | Percent Growth (M14; Log10 Concentration −8.0 Molar): 102% | GI50 (SK-MEL-23): 1.51E−8 Molar | LC50 (SK-MEL-23): >1.00E−4 Molar | TGI (SK-MEL-23): >1.00E−4 Molar | Percent Growth (SK-MEL-23; Log10 Concentration −4.0 Molar): 41% | Percent Growth (SK-MEL-23; Log10 Concentration −5.0 Molar): 32% | Percent Growth (SK-MEL-23; Log10 Concentration −6.0 Molar): 54% | Percent Growth (SK-MEL-23; Log10 Concentration −7.0 Molar): 97% | Percent Growth (SK-MEL-23; Log10 Concentration −8.0 Molar): 105% | GI50 (SK-OV-3): 2.09E−6 Molar | LC50 (SK-OV-3): >1.00E−4 Molar | TGI (SK-OV-3): >1.00E−4 Molar | Percent Growth (SK-OV-3; Log10 Concentration −4.0 Molar): 16% | Percent Growth (SK-OV-3; Log10 Concentration −5.0 Molar): 36% | Percent Growth (SK-OV-3; Log10 Concentration −6.0 Molar): 57% | Percent Growth (SK-OV-3; Log10 Concentration −7.0 Molar): 97% | Percent Growth (SK-OV-3; Log10 Concentration −8.0 Molar): 106% | GI50 (785-0): 5.14E−7 Molar | LC50 (785-0): >1.00E−4 Molar | TGI (785-0): >1.00E−4 Molar | Percent Growth (785-0; Log10 Concentration −4.0 Molar): 16% | Percent Growth (785-0; Log10 Concentration −5.0 Molar): 26% | Percent Growth (785-0; Log10 Concentration −6.0 Molar): 31% | Percent Growth (785-0; Log10 Concentration −7.0 Molar): 97% | Percent Growth (785-0; Log10 Concentration −8.0 Molar): 102% | GI50 (A498): 2.49E−6 Molar | LC50 (A498): >1.00E−4 Molar | TGI (A498): 2.85E−5 Molar | Percent Growth (A498; Log10 Concentration −4.0 Molar): −17% | Percent Growth (A498; Log10 Concentration −5.0 Molar): 14% | Percent Growth (A498; Log10 Concentration −6.0 Molar): 74% | Percent Growth (A498; Log10 Concentration −7.0 Molar): 91% | Percent Growth (A498; Log10 Concentration −8.0 Molar): 101% | GI50 (CAKI-1): 1.08E−6 Molar | LC50 (CAKI-1): >1.00E−4 Molar | TGI (CAKI-1): >1.00E−4 Molar | Percent Growth (CAKI-1; Log10 Concentration −4.0 Molar): 15% | Percent Growth (CAKI-1; Log10 Concentration −5.0 Molar): 25% | Percent Growth (CAKI-1; Log10 Concentration −6.0 Molar): 51% | Percent Growth (CAKI-1; Log10 Concentration −7.0 Molar): 97% | Percent Growth (CAKI-1; Log10 Concentration −8.0 Molar): 105% | GI50 (RXF 399): 1.20E−5 Molar | LC50 (RXF 399): >1.00E−4 Molar | TGI (RXF 399): 6.26E−5 Molar | Percent Growth (RXF 399; Log10 Concentration −4.0 Molar): −14% | Percent Growth (RXF 399; Log10 Concentration −5.0 Molar): 56% | Percent Growth (RXF 399; Log10 Concentration −6.0 Molar): 91% | Percent Growth (RXF 399; Log10 Concentration −7.0 Molar): 107% | Percent Growth (RXF 399; Log10 Concentration −8.0 Molar): 108% | GI50 (PC-3): 7.15E−7 Molar | LC50 (PC-3): >1.00E−4 Molar | TGI (PC-3): 7.99E−5 Molar | Percent Growth (PC-3; Log10 Concentration −4.0 Molar): −2% | Percent Growth (PC-3; Log10 Concentration −5.0 Molar): 18% | Percent Growth (PC-3; Log10 Concentration −6.0 Molar): 40% | Percent Growth (PC-3; Log10 Concentration −7.0 Molar): 111% | Percent Growth (PC-3; Log10 Concentration −8.0 Molar): 104% | GI50 (NCWADR-RES): 7.87E−7 Molar | LC50 (NCWADR-RES): >1.00E−4 Molar | TGI (NCWADR-RES): >1.00E−4 Molar | Percent Growth (NCWADR-RES; Log10 Concentration −4.0 Molar): 24% | Percent Growth (NCWADR-RES; Log10 Concentration −5.0 Molar): 29% | Percent Growth (NCWADR-RES; Log10 Concentration −6.0 Molar): 44% | Percent Growth (NCWADR-RES; Log10 Concentration −7.0 Molar): 100% | Percent Growth (NCWADR-RES; Log10 Concentration −8.0 Molar): 100% | GI50 (MDA-MB-435): 5.54E−7 Molar | LC50 (MDA-MB-435): >1.00E−4 Molar | TGI (MDA-MB-435): >1.00E−4 Molar | Percent Growth (MDA-MB-435; Log10 Concentration −4.0 Molar): 33% | Percent Growth (MDA-MB-435; Log10 Concentration −5.0 Molar): 20% | Percent Growth (MDA-MB-435; Log10 Concentration −6.0 Molar): 31% | Percent Growth (MDA-MB-435; Log10 Concentration −7.0 Molar): 104% | Percent Growth (MDA-MB-435; Log10 Concentration −8.0 Molar): 104% | GI50 (T-47D): 2.90E−6 Molar | LC50 (T-47D): >1.00E−4 Molar | TGI (T-47D): >1.00E−4 Molar | Percent Growth (T-47D; Log10 Concentration −4.0 Molar): 27% | Percent Growth (T-47D; Log10 Concentration −5.0 Molar): 34% | Percent Growth (T-47D; Log10 Concentration −6.0 Molar): 63% | Percent Growth (T-47D; Log10 Concentration −7.0 Molar): 83% | Percent Growth (T-47D; Log10 Concentration −8.0 Molar): 88%
